In brackets after ≈: the same amount, converted by molar mass. Read-outs that look alike come from different tables or passages of the source.
Assays:
[1] = test system: E. coli K12 strain AG100 and triclosan resistant mutants; experiment: Triclosan MIC by agar serial dilution plates (2.0 fold steps), AG100 and mutants selected on triclosan; format: cell-based, Escherichia coli; conditions: for MIC: agar dilution plates
[2] = test system: hypersusceptible host strain AG100A bearing pBR322-derived plasmids; experiment: Triclosan MIC encoded by plasmid clones in hypersusceptible host AG100A; format: cell-based; conditions: Escherichia coli
[3] = test system: E. coli strains AG100, AG100A, AGT11, AGT11K; experiment: Inhibition of growth rate in broth (liquid) culture; format: cell-based, Escherichia coli; conditions: for IC50: Escherichia coli, 1 h, 1 h after addition
[4] = test system: E. coli strains AG100, AG100A, AGT11, AGT11K; experiment: Cell lysis in broth (liquid) culture (loss of absorbance with loss of viable cfu); format: cell-based, Escherichia coli
[5] = test system: Mycobacterium smegmatis mc^2155 and InhA mutants; experiment: MIC on agar plates by 2-fold serial dilutions, M. smegmatis strains; format: cell-based; conditions: for MIC: Mycolicibacterium smegmatis
E. coli K-12 derivatives = experiment: microbe, parasite or virus in culture; format: cell-based, Escherichia coli; conditions: for MIC: Escherichia coli
[6] = test system: clinical strains of E. coli; experiment: Triclosan MIC of clinical strains from blood samples; format: cell-based; conditions: Escherichia coli
M. smegmatis = conditions: cited from earlier work
M. tuberculosis = conditions: cited from earlier work
[7] = test system: E. coli strain AGT11 versus isogenic parent AG100; experiment: Isoniazid resistance of E. coli in the presence of 250 μM hydrogen peroxide; format: cell-based, Escherichia coli; conditions: triclosan-resistant strain AGT11; 250 μM hydrogen peroxide present

Oc1cc(Cl)ccc1Oc1ccc(Cl)cc1Cl [triclosan, 2,4,4′-trichlor-2′-hydroxydiphenyl ether]
MIC ([1]; Escherichia coli, strain AG100 (wild-type)): 0.28 µg/mL (≈ 0.967 µM)
MIC ([1]; Escherichia coli, strain AG100A (AG100 ΔacrAB::kan)): 0.018 µg/mL (≈ 0.0622 µM)
MIC ([1]; Escherichia coli, strain AGT11 (AG100 fabI G93V)): 41 µg/mL (≈ 142 µM)
MIC ([1]; Escherichia coli, strain AGT11K (AGT11 ΔacrAB::kan)): 2 to 4 µg/mL (≈ 6.91 to 13.8 µM)
MIC of strain divided by MIC of AG1000 ([1]; strain AG100 (fabI none), inactivated locus acrAB): 0.063
MIC of strain divided by MIC of AG1000 ([1]; strain AG100 (fabI none), inactivated locus mar): 0.71
MIC of strain divided by MIC of AG1000 ([1]; strain AG100 (fabI none), inactivated locus none): 1
MIC ([1]; strain AG100 (wild-type)): 0.28 ± 0.04 µg/mL (≈ 0.967 µM)
MIC of strain divided by MIC of AG1000 ([1]; strain AGT7 (fabI mutation NI), inactivated locus none): 1.7
MIC of strain divided by MIC of AG1000 ([1]; strain AGT7, inactivated locus acrAB): 0.071
MIC of strain divided by MIC of AG1000 ([1]; strain AGT7, inactivated locus mar): 1.7
MIC of strain divided by MIC of AG1000 ([1]; strain AGT8 (fabI mutation NI), inactivated locus none): 4
MIC of strain divided by MIC of AG1000 ([1]; strain AGT8, inactivated locus acrAB): 0.25
MIC of strain divided by MIC of AG1000 ([1]; strain AGT8, inactivated locus mar): 3.4
MIC of strain divided by MIC of AG1000 ([1]; strain AGT9 (fabI mutation NI), inactivated locus none): 2.3
MIC of strain divided by MIC of AG1000 ([1]; strain AGT9, inactivated locus acrAB): 0.32
MIC of strain divided by MIC of AG1000 ([1]; strain AGT9, inactivated locus mar): 2.3
MIC ([1]; strain AGT11K (AGT11 ΔacrAB::kan)): 3.2 µg/mL (≈ 11.1 µM)
MIC of strain divided by MIC of AG1000 ([1]; strain AGT21 (fabI G93V), inactivated locus acrAB): 11.4
MIC of strain divided by MIC of AG1000 ([1]; strain AGT21 (fabI G93V), inactivated locus mar): 145
MIC of strain divided by MIC of AG1000 ([1]; strain AGT21 (fabI G93V), inactivated locus none): 145
MIC of strain divided by MIC of AG1000 ([1]; strain AGT23 (fabI M159T), inactivated locus acrAB): 1.7
MIC of strain divided by MIC of AG1000 ([1]; strain AGT23 (fabI M159T), inactivated locus none): 11.4
MIC of strain divided by MIC of AG1000 ([1]; strain AGT25 (fabI F203L), inactivated locus acrAB): 0.57
MIC of strain divided by MIC of AG1000 ([1]; strain AGT25 (fabI F203L), inactivated locus none): 4.6
MIC ([2]; clones pLYT1 through pLYT10 (AGT11 library) in hypersensitive strain AG100A): ~4 µg/mL (≈ 13.8 µM)
MIC ([2]; vector alone (pBR322) in AG100A): 0.005 to 0.02 µg/mL (≈ 0.0173 to 0.0691 µM)
IC50 ([3]; read-out: Concentration of triclosan which inhibited growth rate 50%, strain AG100 (wild type), OD530): ~0.15 µg/mL (≈ 0.518 µM)
IC50 ([3]; read-out: Concentration of triclosan which inhibited growth rate 50%, strain AG100A (ΔacrAB)): ~0.02 µg/mL (≈ 0.0691 µM)
Concentration of triclosan which inhibited growth rate 90% ([3]; strain AG100 (wild type)): 0.6 µg/mL
Concentration of triclosan which inhibited growth rate 90% ([3]; strain AG100A (ΔacrAB)): 0.05 µg/mL
Concentration of triclosan which caused lysis ([4]; strain AG100 (wild type), within 2 h): 8 µg/mL
amount of triclosan required to give lysis ([4]; strains AG100, AG100A and AGT11K together): 2 to 8 µg/mL
MIC ([5]; MC^2155, mc^2155, triclosan in 7H9): 14 µg/mL (≈ 48.4 µM)
MIC ([5]; MC^2155, mc^2155, triclosan in LB, mean (+/− S.D.) of 4-5 experiments): 0.61 µg/mL (≈ 2.11 µM)
MIC (E. coli K-12 derivatives; AG100, span of Tables 3-5, read-out: MIC (determined on agar)): 0.17 to 0.28 µg/mL (≈ 0.587 to 0.967 µM)
MIC (E. coli K-12 derivatives; strain AG100, mean of two to five determinations, read-out: MIC): 0.17 µg/mL (≈ 0.587 µM)
MIC (E. coli K-12 derivatives; strain GC4488, read-out: MIC): 0.08 µg/mL (≈ 0.276 µM)
MIC (E. coli K-12 derivatives; strain HH180, read-out: MIC): 0.07 µg/mL (≈ 0.242 µM)
change of triclosan MIC by overexpression of acrAB (E. coli K-12 derivatives; strain AG100B (mutation in acrR) vs AG100): doubled
MIC ([6]; read-out: mean triclosan MIC, multiply resistant clinical strains E3, E19, HO99 overexpressing marA or soxS): 0.33 µg/mL
MIC ([6]; read-out: mean triclosan MIC, remaining 26 multiply resistant clinical strains overexpressing neither marA or soxS): 0.13 µg/mL
MIC ([6]; read-out: mean triclosan MIC, 14 of 15 antibiotic-susceptible clinical strains (Series S)): 0.09 µg/mL
MIC ([6]; read-out: triclosan MIC, multiply resistant clinical strain E10, overexpressing neither marA nor soxS): 0.38 µg/mL
MIC ([6]; read-out: triclosan MIC, multiply resistant clinical strain HO 17, overexpressing marA): 0.15 µg/mL
MIC ([6]; read-out: triclosan MIC, susceptible clinical strain S20, overexpressing marA): 0.27 µg/mL
susceptibility to triclosan (M. smegmatis): susceptible
susceptibility to triclosan (M. tuberculosis): not sensitive

NNC(=O)c1ccncc1 [isoniazid]
MIC ([5]; MC^2155): 7 µg/mL (≈ 51 µM)
relative MIC (S.D.) isoniazid (7H9) ([5]; strain mc^2155/pMD31::inhA^+): >64
relative MIC (S.D.) isoniazid (7H9) ([5]; strain mc^2155 wild type): 1.0
isoniazid resistance relative to isogenic parent AG100 [7]: several times
